Assay results as given in patent US20040121947A1, “Compounds which inhibit beta-secretase activity and methods of use thereof” (Oklahoma Medical Research Foundation, priority 2000, published 2004).
Read-outs that look alike come from different tables or passages of the source.

What was measured:
[1] = system: plasma Aβ40; test: Inhibition of Aβ production in transgenic mouse model of Alzheimer's disease (plasma Aβ40 ELISA); assay type: in vivo, APP/F mice; conditions: for Sustainment of inhibition of plasma Aβ40: over a 24-h period; for Blood brain barrier penetration (from reduction of plasma Aβ): transgenic mice; for Decrease in plasma Aβ40: within 30 minutes following i.p. injection of about 163 nanomoles
Experimental: Compounds MMI-138, MMI-165, and MMI-185 were synthesized as described above. Compounds were dissolved in 1 ml of dimethyl sulfoxide (DMSO) to a final concentration of about 1 mg/ml for MMI-165 and MMI-185, and about 10 mg/ml for MMI-138. […] Inhibitors were diluted into PBS or H2O immediately prior to injection, as described below. Inhibition constants were determined by methods described by Ermolieff, et al. (Biochem. 39:12450-12456 (2000), the teachings of which are incorporated hereby in their entirety).
The tg2576 strain of mice was obtained from Taconic (Germantown, N.Y.). The APP/F strain of mice were obtained by mating the tg2576 mice with the FVB/N strain. To determine presence of the Swedish APP gene in APP/F mice, the DNA from mice was isolated according to the Qiagen Dneasy™ Tissue Kit. PCR (Qiagen kit and protocol) was used to amplify the fragment of DNA corresponding to the human Swedish APP gene. The following primers were used: […]
At the age of three months, animals of the Alzheimer's disease mouse model APP/F were injected intraperitoneally (i.p.) with about 163 nanomoles of either compounds MMI-138 (molecular weight 674 g/mole; 110 μg per animal, n=2), MMI-165 (molecular weight 626 g/mole; 102 μg per animal, n=2), or MMI-185 (molecular weight 686; 112 μg per animal, n=2).
Heparinized capillary tubes collected blood samples from anesthetized animals from either the retro-orbital sinus or from the saphenous vein at specified intervals following injection. The blood samples were transferred to sterile 1.5 mL microcentrifuge tubes, centrifuged at 5,100 RPM for 10 minutes to recover the plasma (supernatant), and stored at −70° C. until analysis for the Aβ40 by Enzyme Linked-Immuno-Sorbent Assay (ELISA).
A sandwich ELISA (BioSource International, Camarillo, Calif.) was used to determine the levels of Aβ40 in plasma samples. The ELISA utilizes a primary antibody specific for human Aβ for the immobilization of the amino-terminus and a detection antibody specific for the carboxy-terminal amino acids of Aβ40. A conjugated secondary antibody was used to detect the ternary complex, using a stabilized chromogen substrate, quantifiable following addition of 1 M HCl, with the optical densities measured at 450 nm. The procedures were followed according to the BioSource protocol. Optical densities were converted to pg/ml quantities of Aβ40 using a linear regression of the optical densities of standards obtained from the commercial kit, to their known concentrations.

[2] = biological target: T1, memapsin 2 (Homo sapiens, UniProt P56817); test: Inhibition of memapsin 2 proteolytic activity, fluorogenic substrate FS-2; assay type: biochemical; conditions: for % Inhibition Mep2: enzyme concentration equals the compound concentration; for % Inh (M1/M2): ratio of % inhibition memapsin 1 / memapsin 2, 1 or less = greater inhibition of memapsin 2; for Vi/Vo: ratio of initial cleavage velocities of FS-2 with/without compound, enzyme and inhibitor concentrations equal (e.g., about 80 nM, 100 nM)
T1 construct: pET-11 vector-derived residues 1-15 of promemapsin 2-T1 (N, cleaved yes); made in house; host or cells: E. coli
How it was run: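 Inhibitors tested at about 10 nM to 10 μM in pH 4.0 0.1 M sodium acetate containing 10% (v/v) DMSO, after 20 min preincubation at 37 °C with 80 nM self-activated memapsin 2. Substrate-independent Ki derived from apparent Ki via Km and substrate level.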

[3] = biological target: T2, memapsin 1 (Homo sapiens, UniProt Q9Y5Z0); test: Inhibition of memapsin 1 proteolytic activity, fluorogenic substrate FS-2; assay type: biochemical; conditions: for % Inhibition Mep1: enzyme concentration equals the compound concentration; for Ki: Table 9, read-out: Ki apparent Mep1
T2 construct: pET-11 vector-derived residues 1-14 of promemapsin 1-T1 (N, cleaved yes); made in house; host or cells: E. coli
T2 sequence (Q9Y5Z0 63-466 limits assumed): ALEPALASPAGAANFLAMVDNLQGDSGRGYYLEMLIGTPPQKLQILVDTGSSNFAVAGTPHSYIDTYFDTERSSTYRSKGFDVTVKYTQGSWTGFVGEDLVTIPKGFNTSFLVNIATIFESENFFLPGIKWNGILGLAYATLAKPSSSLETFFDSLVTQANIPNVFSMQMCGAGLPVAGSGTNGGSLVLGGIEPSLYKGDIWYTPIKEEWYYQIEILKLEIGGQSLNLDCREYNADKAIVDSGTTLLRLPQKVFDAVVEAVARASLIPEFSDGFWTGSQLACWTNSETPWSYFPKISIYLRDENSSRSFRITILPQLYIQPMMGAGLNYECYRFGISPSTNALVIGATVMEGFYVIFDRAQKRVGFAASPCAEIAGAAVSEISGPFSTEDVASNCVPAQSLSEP
Experimental: Vi/Vo depicts the ratio of initial cleavage velocities of the substrate FS-2 (Ermolieff, et al., Biochemistry […]:12450-12456 (2000)) by memapsin 1 or memapsin 2 in the absence (Vo) or presence (Vi) of a compound of the invention. […] The Vi/Vo values depicted in Table 1 were determined at conditions under which the enzyme and inhibitor concentrations were equal (e.g., about 80 nM, 100 nM).
The relationship of Ki (independent of substrate concentration) to Kiapp is a function of substrate concentration in the assay and the Km for cleavage of the substrate by either memapsin 1 or memapsin 2 by the relationship:
An aliquot of the inhibitor of known concentration in DMSO was diluted into 1.8 ml 0.1 M NaOAc, pH 4.0. DMSO and added to a final concentration of 10% (v/v), and memapsin 2 (final concentration of 80 nM), followed by a 20 minute equilibration at 37° C. Compounds were evaluated for the ability to inhibit memapsin 1 and memapsin 2 at concentrations between about 10 nM and about 10 μm of inhibitor.
The relationship of Ki (independent of substrate concentration) to Kiapp is a function of substrate concentration in the assay and the Km for cleavage of the substrate by either memapsin 1 or memapsin 2 by the relationship: […]

[4] = memapsin 2, apparent Ki in presence of substrate FS-2, read-out: Ki app
[5] = memapsin 2, independent of substrate, converted from Ki apparent, read-out: Ki
[6] = Table 9, read-out: Ki apparent Mep2

T1 sequence (P56817 41-454 limits assumed): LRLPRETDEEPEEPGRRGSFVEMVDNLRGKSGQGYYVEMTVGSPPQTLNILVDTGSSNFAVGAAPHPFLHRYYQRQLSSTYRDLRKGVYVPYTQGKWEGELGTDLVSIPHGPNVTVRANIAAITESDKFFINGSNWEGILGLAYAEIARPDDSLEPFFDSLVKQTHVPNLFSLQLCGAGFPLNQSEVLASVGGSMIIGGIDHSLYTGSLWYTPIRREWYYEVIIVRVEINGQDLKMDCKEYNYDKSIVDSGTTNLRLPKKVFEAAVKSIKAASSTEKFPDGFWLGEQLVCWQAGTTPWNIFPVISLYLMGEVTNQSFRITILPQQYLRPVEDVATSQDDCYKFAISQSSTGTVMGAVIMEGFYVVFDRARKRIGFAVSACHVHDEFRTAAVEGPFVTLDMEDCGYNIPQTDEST

Row | Structure (SMILES) | Ki [2, 4] [nM] | Ki [2, 5] [nM] | % Inhibition Mep2 [2] [%] | % Inh (M1/M2) [2] | Vi/Vo [2] | % Inhibition Mep1 [3] [%] | further results
1 | COCC[C@H](NC(=O)[C@H](CC(C)C)NC(=O)OC(C)(C)C)C(=O)N[C@@H](CC(C)C)[C@@H](O)C[C@@H](C)C(=O)N[C@@H](CC(C)C)C(=O)NC(C)C [MMI-185] | 7.23 | 4.52 |  |  |  |  | Sustainment of inhibition of plasma Aβ40 [1]: appeared to return to initial level; Blood brain barrier penetration (from reduction of plasma Aβ) [1]: penetrated the blood brain barrier; Decrease in plasma Aβ40 [1]: 63%; Ki ([2]; memapsin 2, read-out: Ki): 4.5 nM
2 | CCCCNC(=O)[C@H](C(C)C)N1CC[C@@](C)(C[C@H](O)[C@H](CC(C)C)NC(=O)[C@H](CCSC)NC(=O)OCn2nc(C)cc2C)C1=O [MMI-182] | 447 | 280 | 34 | 0 | 0.66 | 0 | Ki ([2]; Ki, [I] < 100, memapsin 2, [I] < 100 (nM)): 72.7 nM
3 | CSCC[C@H](NC(=O)OCn1nc(C)cc1C)C(=O)N[C@@H](CC(C)C)[C@@H](O)C[C@@H](C)C(=O)N[C@H](C(=O)NCC(C)C)C(C)C [MMI-156] | 3.03 | 1.89 | 68 | 0.47 | 0.32 | 32 | 
4 | CSCC[C@H](NC(=O)OCn1nc(C)cc1C)C(=O)N[C@@H](CC(C)C)[C@@H](O)C[C@@H](C)C(=O)N[C@H](C(=O)NC(C)C)C(C)C [MMI-165] | 24.5 | 15.3 | 60 | 0.45 | 0.4 | 27 | Sustainment of inhibition of plasma Aβ40 [1]: remained nearly constant; Blood brain barrier penetration (from reduction of plasma Aβ) [1]: penetrated the blood brain barrier; Decrease in plasma Aβ40 [1]: 46%; Ki [2, 6]: 24.5 nM; Ki ([2]; memapsin 2, read-out: Ki): 15.3 nM
5 | Cc1cc(C)n(COC(=O)N[C@@H](CCS(C)(=O)=O)C(=O)N[C@@H](CC(C)C)[C@@H](O)C[C@@H](C)C(=O)N[C@H](C(=O)NCc2ccccc2)C(C)C)n1 [MMI-139] |  |  | 50 | 0 | 0.5 | 0 | 
6 | CSCC[C@H](NC(=O)OCn1nc(C)cc1C)C(=O)N[C@@H](CC(C)C)[C@@H](O)C[C@@H](C)C(=O)N[C@@H](CC(C)C)C(=O)NC(CF)CF [MMI-171] | 63.9 | 40 | 45 | 0.18 | 0.55 | 8 | 
7 | CSCC[C@H](NC(=O)[C@@H](NC(=O)OC(C)(C)C)C(C)C)C(=O)N[C@@H](CC(C)C)[C@@H](O)C[C@@H](C)C(=O)N[C@@H](CC(C)C)C(=O)NCc1ccco1 [MMI-116] | 49 | 30.6 | 56 | 1.52 | 0.29 | 85 | 
8 | CSCC[C@H](NC(=O)OCCn1nc(C(C)C)cc1C(C)C)C(=O)N[C@@H](CC(C)C)[C@@H](O)C[C@@H](C)C(=O)N[C@H](C(=O)NCC(C)C)C(C)C [MMI-180] |  |  | 26 | 0 | 0.74 | 0 | 
9 | CSCC[C@H](NC(=O)OCn1nc(C)cc1C)C(=O)N[C@@H](CC(C)C)[C@@H](O)C[C@]1(C)CCN([C@@H](CC(C)C)C(=O)NCC(C)C)C1=O [MMI-181] | 393 | 246 | 47 | 0.19 | 0.53 | 9 | 
10 | CSCC[C@H](NC(=O)[C@@H](NC(=O)OC(C)(C)C)C(C)C)C(=O)N[C@@H](CC(C)C)[C@@H](O)C[C@@H](CO)C(=O)N[C@H](C(=O)NCc1ccccc1)C(C)C [MMI-132] | 107 | 67.1 | 47 | 1.30 | 0.46 | 61 | 
11 | CC(C)C[C@H](NC(=O)[C@H](CCS(C)(=O)=O)NC(=O)[C@@H](NC(=O)OC(C)(C)C)C(C)C)[C@@H](O)C[C@@H](C)C(=O)N[C@@H](C(=O)NCc1ccccc1)[C@@H](C)O [MMI-073] |  |  | 52 | 0.73 | 0.48 | 38 | 
12 | CC(C)C[C@H](NC(=O)[C@H](CS(C)(=O)=O)NC(=O)[C@@H](NC(=O)OC(C)(C)C)C(C)C)[C@@H](O)C[C@@H](C)C(=O)N[C@H](C(=O)NCc1ccccc1)C(C)C [MMI-026] | 16 | 9.97 |  |  |  |  | Ki [2, 6]: 15.9 nM; Ki [3]: 44.7 nM
13 | CSCC[C@H](NC(=O)C(Cn1nc(C)cc1C)C(C)C)C(=O)N[C@@H](CC(C)C)[C@@H](O)C[C@@H](C)C(=O)N[C@H](C(=O)NCC(C)C)C(C)C (stereo partly drawn) [MMI-204] | 27.4 | 17.1 |  |  |  |  | Ki [2, 6]: 27.4 nM; Ki [3]: 1030 nM
14 | CSCC[C@H](NC(=O)[C@@H](NC(=O)OC(C)(C)C)C(C)C)C(=O)N[C@@H](CC(C)C)[C@@H](O)C[C@@H](C)C(=O)N[C@H](C(=O)NCc1ccccc1)C(C)C [MMI-017] | 3.9 | 2.4 |  |  |  |  | Ki [2, 6]: 3.9 nM; Ki [3]: 1.2 nM
15 | CSCC[C@H](NC(=O)[C@@H](NC(=O)OC(C)(C)C)C(C)C)C(=O)N[C@@H](CC(C)C)[C@@H](O)C[C@@H](CO)C(=O)N[C@H](C(=O)NCc1ccccc1)C(C)C [MMI-078] |  |  |  |  | 0.63 |  | % Inhibition Mep2 ([2]; listed as 78): 37%; % Inh (M1/M2) ([2]; listed as 78): 0.76; % Inhibition Mep1 ([3]; listed as 78): 28%
16 | CSCC[C@H](NC(=O)[C@H](CC(C)C)NC(=O)OC(C)(C)C)C(=O)N[C@@H](CC(C)C)[C@@H](O)C[C@@H](C)C(=O)N[C@H](C(=O)NCC(C)C)C(C)C [MMI-134] | 3.48 | 2.18 | 81 | 1.21 |  | 98 | 
